Results published in patent US20100279995A1, “Novel Ansamycin Derivatives” (priority 2005, published 2010).

Tests used:
PRXF DU-145 xenografts = assay: In vivo evaluation of antitumor efficacy in PRXF DU-145 xenografts; design: species or system nude mice; conditions: 60 mg/kg/d i.p. on Days 0-4, 7-11, 14-18, 21, 24, 25, 28 and 29; recorded on day 31; p<0.001 vs vehicle control
[1] = Cleavage assay in phosphate buffer; format: physicochemical; conditions: cleavage to 18,21-dihydromacbecin
Procedure: (§1) Cleavage Assays for Pro-Drugs of 18,21-dihydromacbecin
(§2) Assays to determine the rate of cleavage of the pro-drugs into their parent compounds were performed as described herein. These were carried out in plasma, blood or buffer. Mixed mouse, human or mixed rat plasma containing EDTA or heparin as an anti-coagulant was used or whole defibrinated rabbit blood (mouse and rat plasma and rabbit blood were obtained from Harlan-Sera Labs, human plasma was obtained from Biopredic International).
The stability of the test compounds in phosphate-buffered saline (PBS) of specific pH over the course of each experiment was also analysed using the same methodology.
After the final time point was sampled, the samples were extracted as follows. For each time point sample an Oasis MCX (3 cc/60 mg) or Oasis HLB (333/60 mg) cartridge was conditioned and equilibrated with 2 mL methanol followed by 2 mL water. 1.5 mL water and an internal standard (IS) at 0.002 mg/mL were added to each 0.4 mL plasma sample. This was loaded to the cartridge. The cartridge was washed with 2 mL water and the analytes were eluted in 2 ml MeOH. This extract was analysed without further treatment by LC/MS using the conditions described below.
The cleavage of compounds 1-3 was also measured in phosphate buffer as described in the General Methods—Cleavage Assay above at pH 7.2 and pH 7.4 and T1/2 values calculated as indicated in Table 5 below.

[2] = Cleavage assay in whole defibrinated rabbit blood; format: in vitro ADME
Procedure: as §1, §2
If using whole blood such as defibrinated whole rabbit blood the following protocol was used: The blood was thawed at 37° C. in a water bath. Blood was dispensed into individual 20 mL tubes for each test compound allowing 0.5 mL for each time point to be analysed. A tube containing blood was also included as a control. These tubes were incubated for 15 minutes at 37° C.
Each test compound was reconstituted in DMSO or other appropriate solvent. The blood was removed from the water bath and the compound was added to give a final concentration of 0.001-0.010 mg/mL keeping the final concentration of solvent below 5%. In the case of the control, an equivalent volume of DMSO or other solvent was added. Immediately after the addition of compound a 0.4 mL sample was taken from the tube, transferred to a 2 mL microfuge tube. The plasma was promptly returned to the 37° C. water bath. 0.4 mL samples were taken at regular time points (e.g. after 30 min and then hourly) and were immediately frozen at −80° C. To each 0.4 mL sample in its 2 mL microfuge tube was added 1.5 mL of 0.1 M potassium dihydrogen phosphate, this was inverted to mix. A stable internal standard (IS) in acetonitrile was added at 0.002 mg/mL. This was agitated for 5 min on an IKA shaker at 1500 rpm. Centrifugation at 5000 rpm for 5 min lead to a dense pellet made up of red blood cells and precipitated protein, and a pink/red supernatant. An Oasis HLB (333/60 mg) cartridge was equilibrated with 2 mL of methanol followed by 2 mL of water. […]
The HPLC conditions were: 10% B for 1 min followed by a linear gradient to 100% B over a period of 7 min and an isocratic period of 2 min at 100% B. The analytes were detected by UV absorbance at 255 nm and mass spectrometry using a Bruker Daltonics Esquire 3000+ mass spectrometer coupled to the HPLC. The analytes were quantified based on the extracted ion chromatogram. To ensure a reliable quantification, the linear response of the mass spectrometer was checked for the concentration range of interest.
Each compound was assessed for cleavage to 18,21-dihydromacbecin as follows. […] The samples were applied to a cartridge described above and analysed immediately using Analysis Method C.

[3] = biological target: terminal deoxynucleotidyl transferase (Homo sapiens, UniProt P04053); conditions: Ono et al., 1982; cited from earlier work
LNCAP = assay: Monolayer proliferation assay (modified propidium iodide); format: cell-based, human; conditions: 4 days exposure
From the text: (§3) In vitro evaluation of compounds for anticancer activity in a panel of 12 human tumour cell lines in a monolayer proliferation assay may be carried out at the Oncotest Testing Facility, Institute for Experimental Oncology, Oncotest GmbH, Freiburg.
(§4) The Oncotest cell lines were established from human tumor xenografts as described by Roth et al., (1999). The origin of the donor xenografts is described by Fiebig et al., (1999). Other cell lines were either obtained from the NCI (H460, SF-268, OVCAR-3, DU145, MDA-MB-231, MDA-MB-468) or purchased from DSMZ, Braunschweig, Germany (LNCAP).
(§5) All cell lines, unless otherwise specified, were grown at 37° C. in a humidified atmosphere (95% air, 5% CO2) in a ‘ready-mix’ medium containing RPMI 1640 medium, 10% fetal calf serum, and 0.1 mg/mL gentamicin (PAA, Cölbe, Germany).
(§6) A modified propidium iodide assay was used to assess the effects of the test compound(s) on the growth of twelve human tumour cell lines (Dengler et al., (1995)).
(§7) Briefly, cells were harvested from exponential phase cultures by trypsinization, counted and plated in 96 well flat-bottomed microtitre plates at a cell density dependent on the cell line (5-10.000 viable cells/well). After 24 h recovery to allow the cells to resume exponential growth, 0.010 mL of culture medium (6 control wells per plate) or culture medium containing macbecin was added to the wells. Each concentration was plated in triplicate. Compounds were applied in two concentrations (0.001 mM and 0.01 mM). Following 4 days of continuous exposure, cell culture medium with or without test compound is replaced by 0.2 mL of an aqueous propidium iodide (PI) solution (7 mg/L). To measure the proportion of living cells, cells are permeabilized by freezing the plates. After thawing the plates, fluorescence was measured using the Cytofluor 4000 microplate reader (excitation 530 nm, emission 620 nm), giving a direct relationship to the total number of viable cells.
(§8) Growth inhibition is expressed as treated/control×100 (% T/C).
(§9) In vitro evaluation of macbecin for anticancer activity in a panel of 12 human tumor cell lines in a monolayer proliferation assay was carried out as described in the general methods using a modified propidium iodide assay.

MDA-MB-468 = assay: as above; format: cell-based, human; conditions: MDA468, 4 days exposure
From the text: as §3, §4, §5, §6, §7, §8, §9

UXF 1138L = assay: as above; format: cell-based, human; conditions: 4 days exposure
From the text: as §3, §4, §5, §6, §7, §8, §9

MDA-MB-231 = assay: as above; format: cell-based, human; conditions: MDA231, 4 days exposure
From the text: as §3, §4, §5, §6, §7, §8, §9

GXF 251L = assay: as above; format: cell-based, human; conditions: 4 days exposure
From the text: as §3, §4, §5, §6, §7, §8, §9

DU145 = assay: as above; format: cell-based, human; conditions: 4 days exposure
From the text: as §3, §4, §5, §6, §7, §8, §9

MEXF 394NL = assay: as above; format: cell-based, human; conditions: 4 days exposure
From the text: as §3, §4, §5, §6, §7, §8, §9

NCI-H460 = assay: as above; format: cell-based, human; conditions: 4 days exposure
From the text: as §3, §4, §5, §6, §7, §8, §9

MCF-7 = assay: as above; format: cell-based, human; conditions: MCF7, 4 days exposure
From the text: as §3, §4, §5, §6, §7, §8, §9

SF-268 = assay: as above; format: cell-based, human; conditions: SF268, 4 days exposure
From the text: as §3, §4, §5, §6, §7, §8, §9

OVCAR-3 = assay: as above; format: cell-based, human; conditions: OVCAR3, 4 days exposure
From the text: as §3, §4, §5, §6, §7, §8, §9

A498 = assay: as above; format: cell-based, human; conditions: 4 days exposure
From the text: as §3, §4, §5, §6, §7, §8, §9

Reverse transcriptase = conditions: Ono et al., 1982; cited from earlier work
[4] = Phosphate Buffer pH 7.2 (37° C.)
[5] = Phosphate Buffer pH 7.4 (37° C.)
[6] = Rabbit blood pH 7.3 (37° C.) Run 1

Chain of terminal deoxynucleotidyl transferase (P04053 whole entry, species assumed): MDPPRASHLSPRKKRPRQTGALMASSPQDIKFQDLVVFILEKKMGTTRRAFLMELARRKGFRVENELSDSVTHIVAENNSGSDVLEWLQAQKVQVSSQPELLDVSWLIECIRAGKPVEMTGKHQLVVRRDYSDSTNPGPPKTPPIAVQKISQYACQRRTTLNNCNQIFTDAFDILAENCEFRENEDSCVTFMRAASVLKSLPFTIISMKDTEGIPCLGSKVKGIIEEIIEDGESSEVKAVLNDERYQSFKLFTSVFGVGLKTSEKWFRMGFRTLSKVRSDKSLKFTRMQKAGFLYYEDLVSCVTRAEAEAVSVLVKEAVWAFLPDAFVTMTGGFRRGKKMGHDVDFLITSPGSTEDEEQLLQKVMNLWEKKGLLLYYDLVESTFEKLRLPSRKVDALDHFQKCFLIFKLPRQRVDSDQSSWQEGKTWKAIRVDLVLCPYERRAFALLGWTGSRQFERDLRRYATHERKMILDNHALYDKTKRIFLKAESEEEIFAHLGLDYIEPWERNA

## 18-O—(N,N′-dimethylethylenediamine-N′-carbamoyl)-18,21-dihydromacbecin Hydrochloride Salt [Compound 1]
PRXF DU-145 xenografts
  minimum T/C value: 24.3%
[1]; [4]
  t1/2: 1.07 h
[1]; [5]
  t1/2: 0.817 h
[2]; [6]
  t1/2: 0.75 h
[2]; Rabbit blood pH 7.3 (37° C.) Run 2
  t1/2: 0.817 h

## CNCCNC(=O)Oc1cc2c(O)c(c1)C(OC)C(C)CC(OC)C(OC)C(C)C=C(C)C(OC(N)=O)C(C)C=CC=C(C)C(=O)N2.Cl (stereo not shown) [Compound 2, 18-O—(N-methylethylenediamine-N′-carbamoyl)-18,21-dihydromacbecin Hydrochloride Salt]
[1]; [4]
  t1/2: 10.4 h
[1]; [5]
  t1/2: 2.12 h
[2]; [6]
  t1/2: 2.55 h

## 18-O—(N,N′-diethylethylenediamine-N′-carbamoyl)-18,21-dihydromacbecin Hydrochloride Salt [Compound 3]
[1]; [4]
  t1/2: 4.6 h
[1]; [5]
  t1/2: 2.67 h
[2]; [6]
  t1/2: 2.67 h

## CO[C@H]1[C@@H](OC)C[C@H](C)[C@@H](OC)C2=CC(=O)C=C(NC(=O)/C(C)=C/C=C\[C@@H](C)[C@@H](OC(N)=O)/C(C)=C/[C@@H]1C)C2=O [macbecin]
[3]
  terminal deoxynucleotidyl transferase activity inhibition: not inhibited
LNCAP; 1 × 10−5 M
  Test/Control (%) at drug concentration: 27.5%
LNCAP; 1 × 10−6 M
  Test/Control (%) at drug concentration: 43.5%
MDA-MB-468; 1 × 10−5 M
  Test/Control (%) at drug concentration: 4%
MDA-MB-468; 1 × 10−6 M
  Test/Control (%) at drug concentration: 14.5%
UXF 1138L; 1 × 10−5 M
  Test/Control (%) at drug concentration: 19%
UXF 1138L; 1 × 10−6 M
  Test/Control (%) at drug concentration: 75.5%
MDA-MB-231; 1 × 10−5 M
  Test/Control (%) at drug concentration: 34%
MDA-MB-231; 1 × 10−6 M
  Test/Control (%) at drug concentration: 88%
GXF 251L; 1 × 10−5 M
  Test/Control (%) at drug concentration: 37%
GXF 251L; 1 × 10−6 M
  Test/Control (%) at drug concentration: 61%
DU145; 1 × 10−5 M
  Test/Control (%) at drug concentration: 14.5%
DU145; 1 × 10−6 M
  Test/Control (%) at drug concentration: 42%
MEXF 394NL; 1 × 10−5 M
  Test/Control (%) at drug concentration: 17%
MEXF 394NL; 1 × 10−6 M
  Test/Control (%) at drug concentration: 21%
NCI-H460; 1 × 10−5 M
  Test/Control (%) at drug concentration: 21.5%
NCI-H460; 1 × 10−6 M
  Test/Control (%) at drug concentration: 110%
MCF-7; 1 × 10−5 M
  Test/Control (%) at drug concentration: 12%
MCF-7; 1 × 10−6 M
  Test/Control (%) at drug concentration: 35.5%
SF-268; 1 × 10−5 M
  Test/Control (%) at drug concentration: 20.5%
SF-268; 1 × 10−6 M
  Test/Control (%) at drug concentration: 95.5%
OVCAR-3; 1 × 10−5 M
  Test/Control (%) at drug concentration: 37.5%
OVCAR-3; 1 × 10−6 M
  Test/Control (%) at drug concentration: 71%
A498; 1 × 10−5 M
  Test/Control (%) at drug concentration: 82%
A498; 1 × 10−6 M
  Test/Control (%) at drug concentration: 107.5%
Reverse transcriptase
  Reverse transcriptase activity inhibition: not inhibited
